Experimental data: PubChem BioAssay (NCI)
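Here, GI50 denotes the concentration required for 50% inhibition of growth. The concentration for full growth arrest is given as TGI.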

Experiments:
Assay in all cases: inhibition of tumour cell growth, NCI panel, 384-well format; in the data active means GI50 below about 0.43 µM; inactive means the rest
UACC-62 melanoma = tested on: UACC-62 melanoma
TK-10 renal = tested on: TK-10 renal
SK-MEL-5 melanoma = tested on: SK-MEL-5 melanoma
HOP-92 NSCLC = tested on: HOP-92 NSCLC
SF-295 CNS = tested on: SF-295 CNS
NCI-H226 lung = tested on: NCI-H226 lung
CCRF-CEM leukemia = tested on: CCRF-CEM leukemia
COLO 205 colon = tested on: COLO 205 colon
PC-3 prostate = tested on: PC-3 prostate
KM12 colon = tested on: KM12 colon
ACHN renal = tested on: ACHN renal
NCI/ADR-RES ovarian = tested on: NCI/ADR-RES ovarian
BT-549 breast = tested on: BT-549 breast
RXF 393 renal = tested on: RXF 393 renal
HS 578T breast = tested on: HS 578T breast
OVCAR-3 ovarian = tested on: OVCAR-3 ovarian
SK-MEL-2 melanoma = tested on: SK-MEL-2 melanoma
SF-268 CNS = tested on: SF-268 CNS
NCI-H460 NSCLC = tested on: NCI-H460 NSCLC
OVCAR-4 ovarian = tested on: OVCAR-4 ovarian
HOP-62 NSCLC = tested on: HOP-62 NSCLC
MOLT-4 leukemia = tested on: MOLT-4 leukemia
NCI-H522 lung = tested on: NCI-H522 lung
MDA-MB-435 melanoma = tested on: MDA-MB-435 melanoma
EKVX NSCLC = tested on: EKVX NSCLC
A549 NSCLC = tested on: A549 NSCLC
HT29 colon = tested on: HT29 colon
OVCAR-5 ovarian = tested on: OVCAR-5 ovarian

CC(C)(C)c1ccc(Oc2ccc(N)cn2)cc1
inactive: GI50 (UACC-62 melanoma) > 100 µM | GI50 (TK-10 renal) 93 µM | GI50 (SK-MEL-5 melanoma) 22.3 µM | GI50 (HOP-92 NSCLC) 34.8 µM | GI50 (SF-295 CNS) > 100 µM | GI50 (NCI-H226 lung) 10.8 µM | GI50 (COLO 205 colon) 38.6 µM | GI50 (PC-3 prostate) 43.5 µM | GI50 (KM12 colon) 44.3 µM | GI50 (ACHN renal) > 100 µM | GI50 (NCI/ADR-RES ovarian) 36.4 µM | GI50 (BT-549 breast) 12.6 µM | GI50 (RXF 393 renal) 21.8 µM | GI50 (HS 578T breast) 29.5 µM | GI50 (OVCAR-3 ovarian) 24.9 µM | GI50 (SK-MEL-2 melanoma) > 100 µM | GI50 (SF-268 CNS) 26 µM | GI50 (NCI-H460 NSCLC) 32.7 µM | GI50 (OVCAR-4 ovarian) 28.1 µM | GI50 (HOP-62 NSCLC) 33 µM | GI50 (MOLT-4 leukemia) 4.83 µM | GI50 (NCI-H522 lung) 14.7 µM | GI50 (MDA-MB-435 melanoma) 92.2 µM | GI50 (EKVX NSCLC) 44.2 µM | GI50 (A549 NSCLC) 20.4 µM | GI50 (HT29 colon) 24.9 µM | GI50 (OVCAR-5 ovarian) > 100 µM
65 µM: TGI (BT-549 breast)
51.8 µM: TGI (SK-MEL-5 melanoma)
> 100 µM: TGI (UACC-62 melanoma) | TGI (TK-10 renal) | TGI (HOP-92 NSCLC) | TGI (SF-295 CNS) | TGI (PC-3 prostate) | TGI (KM12 colon) | TGI (ACHN renal) | TGI (NCI/ADR-RES ovarian) | TGI (HS 578T breast) | TGI (OVCAR-3 ovarian) | TGI (SK-MEL-2 melanoma) | TGI (SF-268 CNS) | TGI (NCI-H460 NSCLC) | TGI (OVCAR-4 ovarian) | TGI (HOP-62 NSCLC) | TGI (MDA-MB-435 melanoma) | TGI (EKVX NSCLC) | TGI (A549 NSCLC) | TGI (OVCAR-5 ovarian)
active: GI50 (CCRF-CEM leukemia) 0.302 µM
52.3 µM: TGI (NCI-H226 lung)
66.2 µM: TGI (RXF 393 renal)
57.7 µM: TGI (HT29 colon)
86.6 µM: TGI (COLO 205 colon)
19.3 µM: TGI (MOLT-4 leukemia)
1.24 µM: TGI (CCRF-CEM leukemia)
39.9 µM: TGI (NCI-H522 lung)
